Reference: patent US20250163061A1 (Bala Therapeutics, Inc., priority 2021, published 2025)

Legend:
Format in all cases: cell-based
MV4-11 = MV4-11 cellular growth inhibition assay (CellTiter-Glo); conditions: Homo sapiens, 168 h, MV4-11 cells, 7 days of incubation
Method: (§1) HEK293 (Institute of Cytology Russian Academy of Science), MV4-11 (ATCC, CRL-9591), MOLM-13 (AcceGen, ABC-TC517S) were seeded at a density of 500 cells per well (HEK293) and 2000 cells per well (MV4-11, MOLM-13) in a 384-well clear bottom plate (Greiner Cat #781090) in 45 μl total volume of DMEM (PanEco, Cat #C420, Russia) or RPMI (PanEco, Cat #C330, Russia) with 10% FBS (HyClone Cat #SV30160.03). HEK293 were allowed to adhere overnight at 37° C., 5% CO2. 500× compounds solutions in DMSO (Sigma Cat #D2650) were prepared into Cmpnds plate (Diamond Well Plate, Axigen, Cat #P-384-120SQ-C-S) and DMSO only control was included. 1 μl of 500× compounds (Cmpnds plate) was added to 49 μl of culture medium into Dilution plate (Diamond Well Plate, Axigen, Cat #P-384-120SQ-C-S), mixed and then 5 μl of 10× compounds solutions were transferred to cells followed by centrifugation at 100 g for 1 min. Final DMSO concentration was 0.2%. After 3 days of incubation, 10 μl of 1× compounds were added to cells. After 7 days of incubation, 12 μl of CellTiter-Glo (Promega, CAT #G7572) were added to the cells, plate was centrifuged at 100 g for 1 min and luminescence signal was measured using Microplate Reader (CLARIOStar).

[1] = HEK293 cellular growth inhibition assay (CellTiter-Glo); conditions: human, HEK293 cells, 7 days of incubation
Method: as §1

MOLM-13 = MOLM-13 cellular growth inhibition assay (CellTiter-Glo); conditions: Homo sapiens, 168 h, MOLM-13 cells, 7 days of incubation
Method: as §1

## Cc1c(CN2CCC3(CC2)CN(c2ncnc4ccc(CC(F)(F)F)cc24)C3)ccc2c1cc(C#N)n2CC1CCC(=O)NC1 (stereo not drawn) [Compound 72, 4-Methyl-1-[(6-oxopiperidin-3-yl)methyl]-5-({2-[6-(2,2,2-trifluoroethyl)quinazolin-4-yl]-2,7-diazaspiro[3.5]non-7-yl}methyl)-1H-indole-2-carbonitrile]
MV4-11
  CC50: 0.1 to 0.5 µM
[1]
  CC50 at 7 days: ≤ 2 µM
MOLM-13
  CC50: 0.5 to 1 µM

## C=CC(=O)N1CCN(C(C)Cn2c(C#N)cc3c(C)c(CN4CCC5(CC4)CN(c4ncnc6ccc(CC(F)(F)F)cc46)C5)ccc32)CC1 (stereo not drawn) [Compound 63, 1-[2-(4-Acryloylpiperazin-1-yl)propyl]-4-methyl-5-({2-[6-(2,2,2-trifluoroethyl)quinazolin-4-yl]-2,7-diazaspiro[3.5]non-7-yl}methyl)-1H-indole-2-carbonitrile]
MV4-11
  CC50: 0.1 to 0.5 µM
[1]
  CC50 at 7 days: 2 to 5 µM
MOLM-13
  CC50: 0.1 to 0.5 µM

## Cc1c(CN2CCC3(CC2)CN(c2ncnc4ccc(CC(F)(F)F)cc24)C3)ccc2c1cc(C#N)n2C[C@H]1CC[C@H](NS(C)(=O)=O)CC1 [Compound 40, N-(trans-4-{[2-Cyano-4-methyl-5-({2-[6-(2,2,2-trifluoroethyl)quinazolin-4-yl]-2,7-diazaspiro[3.5]non-7-yl}methyl)-1H-indol-1-yl]methyl}cyclohexyl)methanesulfonamide]
MV4-11
  CC50: 0.1 to 0.5 µM
[1]
  CC50 at 7 days: 10 to 20 µM
MOLM-13
  CC50: 1 to 5 µM

## Cc1c(CN2CCC3(CC2)CN(c2ncnc4ncc(CC(F)(F)F)cc24)C3)ccc2c1cc(C#N)n2CC(C)N1CCN(S(C)(=O)=O)CC1 (stereo not drawn) [Compound 89, 4-Methyl-1-{2-[4-(methylsulfonyl)piperazin-1-yl]propyl}-5-({2-[6-(2,2,2-trifluoroethyl)pyrido[2,3-d]pyrimidin-4-yl]-2,7-diazaspiro[3.5]non-7-yl}methyl)-1H-indole-2-carbonitrile]
MV4-11
  CC50: ≤ 0.1 µM
[1]
  CC50 at 7 days: ≤ 2 µM
MOLM-13
  CC50: 0.5 to 1 µM

## Cc1c(CN2CCC3(CC2)CN(c2ncnc4ccc(CC(F)(F)F)cc24)C3)ccc2c1cc(C#N)n2CC12CC(NC=O)(C1)C2 [Compound 95, (3-{[2-Cyano-4-methyl-5-({2-[6-(2,2,2-trifluoroethyl)quinazolin-4-yl]-2,7-diazaspiro[3.5]non-7-yl}methyl)-1H-indol-1-yl]methyl}bicyclo[1.1.1]pent-1-yl)formamide]
MV4-11
  CC50: ≤ 0.1 µM
[1]
  CC50 at 7 days: 2 to 5 µM
MOLM-13
  CC50: 0.1 to 0.5 µM

## Cc1c(CN2CCC3(CC2)CN(c2ncnc4ccc(CC(F)(F)F)cc24)C3)ccc2c1cc(C#N)n2Cc1ccc(=O)[nH]c1 [Compound 14, 4-Methyl-1-[(6-oxo-1,6-dihydropyridin-3-yl)methyl]-5-({2-[6-(2,2,2-trifluoroethyl)quinazolin-4-yl]-2,7-diazaspiro[3.5]non-7-yl}methyl)-1H-indole-2-carbonitrile]
MV4-11
  CC50: ≤ 0.1 µM
[1]
  CC50 at 7 days: ≤ 2 µM
MOLM-13
  CC50: ≤ 0.1 µM

## Cc1c(CN2CCC3(CC2)CN(c2ncnc4ccc(CC(F)(F)F)c(F)c24)C3)ccc2c1cc(C#N)n2CC1CNC(=O)CO1 (stereo not drawn) [Compound 12, 5-[[2-[5-Fluoro-6-(2,2,2-trifluoroethyl)quinazolin-4-yl]-2,7-diazaspiro[3.5]nonan-7-yl]methyl]-4-methyl-1-[(5-oxomorpholin-2-yl)methyl]indole-2-carbonitrile]
MV4-11
  CC50: 0.1 to 0.5 µM
[1]
  CC50 at 7 days: ≤ 2 µM
MOLM-13
  CC50: 0.5 to 1 µM

## N#Cc1cc2cc(CN3CCC4(CC3)CN(c3ncnc5ccc(CC(F)(F)F)cc35)C4)ccc2[nH]1 [Compound 98]
MV4-11
  CC50: 0.5 to 1 µM
[1]
  CC50 at 7 days: 5 to 10 µM
MOLM-13
  CC50: 1 to 5 µM

## Cc1c(CN2CCC3(CC2)CN(c2ncnc4ccc(CC(F)(F)F)cc24)C3)ccc2c1cc(C#N)n2CC1CCNC(=O)C1 (stereo not drawn) [Compound 22, 4-Methyl-1-[(2-oxopiperidin-4-yl)methyl]-5-({2-[6-(2,2,2-trifluoroethyl)quinazolin-4-yl]-2,7-diazaspiro[3.5]non-7-yl}methyl)-1H-indole-2-carbonitrile]
MV4-11
  CC50: 0.1 to 0.5 µM
[1]
  CC50 at 7 days: 2 to 5 µM
MOLM-13
  CC50: 0.5 to 1 µM

## Cc1c(CN2CCC3(CC2)CN(c2ncnc4ccc(CC(F)(F)F)cc24)C3)ccc2c1cc(C#N)n2CCCCN1CCN(S(C)(=O)=O)CC1 [Compound 44, 4-Methyl-1-{4-[4-(methylsulfonyl)piperazin-1-yl]butyl}-5-({2-[6-(2,2,2-trifluoroethyl)quinazolin-4-yl]-2,7-diazaspiro[3.5]non-7-yl}methyl)-1H-indole-2-carbonitrile]
MV4-11
  CC50: 1 to 5 µM
[1]
  CC50 at 7 days: 2 to 5 µM
MOLM-13
  CC50: > 5 µM

## Cc1c(CN2CCC3(CC2)CN(c2ncnc4ccc(CC(F)(F)F)cc24)C3)ccc2c1cc(C#N)n2C[C@H]1CNC(=O)CO1 [Compound 101, 4-Methyl-1-{[(2R)-5-oxomorpholin-2-yl]methyl}-5-({2-[6-(2,2,2-trifluoroethyl)quinazolin-4-yl]-2,7-diazaspiro[3.5]non-7-yl}methyl)-1H-indole-2-carbonitrile]
MV4-11
  CC50: 0.1 to 0.5 µM
[1]
  CC50 at 7 days: 2 to 5 µM
MOLM-13
  CC50: 1 to 5 µM

## Cc1c(CN2CCC3(CC2)CN(c2ncnc4ccc(CC(F)(F)F)cc24)C3)ccc2c1cc(C#N)n2CC1CNC(=O)C1 (stereo not drawn) [Compound 51, 4-Methyl-1-[(5-oxopyrrolidin-3-yl)methyl]-5-({2-[6-(2,2,2-trifluoroethyl)quinazolin-4-yl]-2,7-diazaspiro[3.5]non-7-yl}methyl)-1H-indole-2-carbonitrile]
MV4-11
  CC50: 0.1 to 0.5 µM
[1]
  CC50 at 7 days: 2 to 5 µM
MOLM-13
  CC50: 1 to 5 µM

## Cc1c(CN2CCC3(CC2)CN(c2ncnc4ccc(CC(F)(F)F)cc24)C3)ccc2c1cc(C#N)n2CC(C)N1CCNC(=O)C1 (stereo not drawn) [Compound 93, 4-Methyl-1-[2-(3-oxopiperazin-1-yl)propyl]-5-({2-[6-(2,2,2-trifluoroethyl)quinazolin-4-yl]-2,7-diazaspiro[3.5]non-7-yl}methyl)-1H-indole-2-carbonitrile]
MV4-11
  CC50: ≤ 0.1 µM
[1]
  CC50 at 7 days: 2 to 5 µM
MOLM-13
  CC50: 0.5 to 1 µM

## Cc1c(CN2CCC3(CC2)CN(c2ncnc4ccc(CC(F)(F)F)cc24)C3)ccc2c1cc(C#N)n2CC12CC(NS(N)(=O)=O)(C1)C2 [Compound 61, 4-[7-[[2-cyano-4-methyl-1-[[3-(sulfamoylamino)-1-bicyclo[1.1.1]pentanyl]methyl]indol-5-yl]methyl]-2,7-diazaspiro[3.5]nonan-2-yl]-6-(2,2,2-trifluoroethyl)quinazoline]
MV4-11
  CC50: ≤ 0.1 µM
[1]
  CC50 at 7 days: 5 to 10 µM
MOLM-13
  CC50: 0.1 to 0.5 µM

## Cc1c(CN2CCC3(CC2)CN(c2ncnc4ccc(CC(F)(F)F)cc24)C3)ccc2[nH]c(C#N)cc12 [Compound 68, 4-Methyl-5-({2-[6-(2,2,2-trifluoroethyl)quinazolin-4-yl]-2,7-diazaspiro[3.5]non-7-yl}methyl)-1H-indole-2-carbonitrile]
MV4-11
  CC50: 0.1 to 0.5 µM
[1]
  CC50 at 7 days: 2 to 5 µM
MOLM-13
  CC50: 0.5 to 1 µM

## CCCCS(=O)(=O)N1CCCN(C(C)Cn2c(C#N)cc3c(C)c(CN4CCC5(CC4)CN(c4ncnc6ccc(CC(F)(F)F)cc46)C5)ccc32)CC1 (stereo not drawn) [Compound 73, 1-{2-[4-(Butylsulfonyl)-1,4-diazepan-1-yl]propyl}-4-methyl-5-({2-[6-(2,2,2-trifluoroethyl)quinazolin-4-yl]-2,7-diazaspiro[3.5]non-7-yl}methyl)-1H-indole-2-carbonitrile]
MV4-11
  CC50: ≤ 0.1 µM
[1]
  CC50 at 7 days: > 20 µM
MOLM-13
  CC50: 0.5 to 1 µM

## Cc1c(CN2CCC3(CC2)CN(c2ncnc4ccc(CC(F)(F)F)cc24)C3)ccc2c1cc(C#N)n2C(C)CCN1CCN(S(C)(=O)=O)CC1 (stereo not drawn) [Compound 13, 4-Methyl-1-{1-methyl-3-[4-(methylsulfonyl)piperazin-1-yl]propyl}-5-({2-[6-(2,2,2-trifluoroethyl)quinazolin-4-yl]-2,7-diazaspiro[3.5]non-7-yl}methyl)-1H-indole-2-carbonitrile]
MV4-11
  CC50: ≤ 0.1 µM
[1]
  CC50 at 7 days: 5 to 10 µM
MOLM-13
  CC50: 0.5 to 1 µM

## Cc1c(CN2CCC3(CC2)CN(c2ncnc4ccc(CC(F)(F)F)cc24)C3)ccc2c1cc(C#N)n2C[C@@H](C)N1CCN(S(C)(=O)=O)[C@@H](C)C1 [Compound 27, 4-methyl-1-[(2R)-2-[(3S)-3-methyl-4-methylsulfonyl-piperazin-1-yl]propyl]-5-[[2-[6-(2,2,2-trifluoroethyl)quinazolin-4-yl]-2,7-diazaspiro[3.5]nonan-7-yl]methyl]indole-2-carbonitrile]
MV4-11
  CC50: ≤ 0.1 µM
[1]
  CC50 at 7 days: 5 to 10 µM
MOLM-13
  CC50: 0.1 to 0.5 µM
